Reference: patent US20230355571A1, “METHOD FOR TREATING VIRAL AND BACTERIAL INFECTION THROUGH INHALATION THERAPY” (priority 2020, published 2023)
Like-named read-outs stand apart in the source and are kept apart here.

Experiments:
rats [1] = assay: NOAEL, oral, rats; type: in vivo
Description: The NOAEL value for Polysorbate 20 taken orally in rats is greater than 2,500 mg/kg (body weight), the highest dose tested.

rats [2] = conditions: oral, rat, cited from earlier work
[3] = cited from earlier work
COPD patients = conditions: orally 600 mg/day, cited from earlier work
[4] = tested on: CdCl2 treated human lung cells; conditions: 2.5 mM; 75 μM CdCl2; cited from earlier work
H5N1 influenza A virus = conditions: 5 mM (816 mg/L) to 15 mM (2,448 mg/L), 24 hrs post-infection; cited from earlier work
[5] = tested on: primary human bronchial epithelial cells; conditions: pretreatment; cited from earlier work
mice [6] = conditions: inhalation; cited from earlier work
hTRPA1 = hTRPA1 (Homo sapiens, UniProt O75762); conditions: cited from earlier work; for inhibition of hTRPA1 activation by menthol and AITC: compound at 1 mM, menthol 1 mM, AITC 10 uM
hTRPA1, sequence (O75762 whole entry): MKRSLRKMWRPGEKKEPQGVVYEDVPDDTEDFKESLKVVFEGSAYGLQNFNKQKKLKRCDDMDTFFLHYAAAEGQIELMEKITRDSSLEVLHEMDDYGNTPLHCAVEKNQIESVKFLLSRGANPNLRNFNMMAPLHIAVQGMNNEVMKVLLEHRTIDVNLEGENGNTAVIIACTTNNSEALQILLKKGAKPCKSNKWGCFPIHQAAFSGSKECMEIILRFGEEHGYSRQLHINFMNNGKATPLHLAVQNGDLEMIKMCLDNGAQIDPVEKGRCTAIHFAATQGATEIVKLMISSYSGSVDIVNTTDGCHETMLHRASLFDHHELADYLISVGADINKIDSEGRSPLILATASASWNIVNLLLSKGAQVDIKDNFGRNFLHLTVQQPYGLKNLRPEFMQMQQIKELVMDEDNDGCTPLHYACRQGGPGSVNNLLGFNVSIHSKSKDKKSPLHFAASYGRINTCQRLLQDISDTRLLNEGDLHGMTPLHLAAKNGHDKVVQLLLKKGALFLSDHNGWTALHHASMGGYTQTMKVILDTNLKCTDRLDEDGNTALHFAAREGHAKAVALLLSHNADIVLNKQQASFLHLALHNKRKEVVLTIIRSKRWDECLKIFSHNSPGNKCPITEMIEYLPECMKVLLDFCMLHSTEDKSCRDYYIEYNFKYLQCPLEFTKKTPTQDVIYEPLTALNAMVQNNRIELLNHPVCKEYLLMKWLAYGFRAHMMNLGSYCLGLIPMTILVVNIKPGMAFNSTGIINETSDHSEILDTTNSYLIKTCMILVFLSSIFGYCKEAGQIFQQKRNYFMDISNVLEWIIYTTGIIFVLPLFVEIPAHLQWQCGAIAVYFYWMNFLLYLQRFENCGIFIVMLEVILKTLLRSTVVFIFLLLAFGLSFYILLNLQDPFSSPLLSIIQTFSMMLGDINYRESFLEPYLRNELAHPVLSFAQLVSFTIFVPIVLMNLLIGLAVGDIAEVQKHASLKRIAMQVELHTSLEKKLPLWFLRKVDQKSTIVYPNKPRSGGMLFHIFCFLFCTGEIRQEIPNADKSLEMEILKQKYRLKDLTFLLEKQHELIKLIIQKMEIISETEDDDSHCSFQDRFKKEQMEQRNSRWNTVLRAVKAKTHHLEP

guinea pigs [7] = conditions: cited from earlier work
human lung cancer A549 = conditions: in vitro and ex vivo; cited from earlier work
leukemia K562 cells = conditions: in vitro and ex vivo; cited from earlier work
mice [8] = conditions: cited from earlier work
guinea pigs [9] = conditions: pretreatment; cited from earlier work
CB2 receptor = CB2 receptor (Homo sapiens, UniProt P34972); conditions: unit inferred; read-out: Ki, CB2 receptor binding; cited from earlier work
CB2 receptor, sequence (P34972 whole entry): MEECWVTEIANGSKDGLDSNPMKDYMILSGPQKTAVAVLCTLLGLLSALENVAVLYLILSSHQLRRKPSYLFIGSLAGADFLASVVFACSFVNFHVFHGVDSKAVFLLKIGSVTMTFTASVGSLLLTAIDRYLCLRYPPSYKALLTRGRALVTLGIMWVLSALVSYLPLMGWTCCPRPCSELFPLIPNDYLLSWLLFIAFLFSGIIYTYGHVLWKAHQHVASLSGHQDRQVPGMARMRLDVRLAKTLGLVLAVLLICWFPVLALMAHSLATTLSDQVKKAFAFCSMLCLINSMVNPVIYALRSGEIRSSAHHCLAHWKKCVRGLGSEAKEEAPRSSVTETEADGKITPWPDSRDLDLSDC

[10] = 100 μM, in the presence of 2 mM N-acetyl cysteine; cited from earlier work
rats [11] = conditions: 50 mg/kg orally each day; smoke 1 hr/day for 56 days; cited from earlier work
mice [12] = conditions: intraperitoneal 5 and 10 mg/kg-d pretreatment; cited from earlier work
[13] = tested on: Human respiratory syncytial virus (hRSV); conditions: 14 days prior to challenge and 3 days post challenge; cited from earlier work
[14] = in vivo; cited from earlier work
asthma patients = conditions: human, in vivo; cited from earlier work
human MonoMac6 cells = conditions: cells pretreated; cited from earlier work
TRAPA1 = TRAPA1 (Homo sapiens, UniProt O75762); conditions: read-out: IC50, TRPA1 antagonist; cited from earlier work
TRAPA1, sequence (O75762 whole entry): as the sequence (O75762 whole entry) above

TRPV1 = TRPV1 (Homo sapiens, UniProt Q8NER1); conditions: cited from earlier work
TRPV1, sequence (Q8NER1 whole entry, species assumed): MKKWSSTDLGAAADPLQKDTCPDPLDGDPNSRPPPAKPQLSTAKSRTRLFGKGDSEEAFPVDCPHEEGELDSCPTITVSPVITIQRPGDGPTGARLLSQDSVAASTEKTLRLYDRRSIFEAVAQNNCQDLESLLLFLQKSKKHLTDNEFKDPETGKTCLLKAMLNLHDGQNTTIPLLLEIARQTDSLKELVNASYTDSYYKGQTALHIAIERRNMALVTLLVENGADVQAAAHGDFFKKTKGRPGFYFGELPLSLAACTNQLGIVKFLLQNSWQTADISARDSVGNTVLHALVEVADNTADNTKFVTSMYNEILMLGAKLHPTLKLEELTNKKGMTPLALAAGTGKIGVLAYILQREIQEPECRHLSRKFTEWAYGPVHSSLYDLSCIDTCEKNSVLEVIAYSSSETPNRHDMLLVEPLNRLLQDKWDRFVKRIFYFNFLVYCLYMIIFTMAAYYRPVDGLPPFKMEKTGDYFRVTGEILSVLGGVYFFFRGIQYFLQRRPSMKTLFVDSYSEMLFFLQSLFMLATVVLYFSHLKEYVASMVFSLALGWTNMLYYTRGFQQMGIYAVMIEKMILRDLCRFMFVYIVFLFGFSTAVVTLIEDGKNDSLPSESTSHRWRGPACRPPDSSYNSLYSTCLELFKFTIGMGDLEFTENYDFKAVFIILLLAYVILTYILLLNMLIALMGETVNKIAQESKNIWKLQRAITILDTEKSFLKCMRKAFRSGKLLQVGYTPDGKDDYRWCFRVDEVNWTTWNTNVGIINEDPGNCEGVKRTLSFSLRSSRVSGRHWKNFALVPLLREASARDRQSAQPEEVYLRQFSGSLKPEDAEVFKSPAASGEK

TRPV4 = TRPV4 (Homo sapiens, UniProt Q9HBA0); conditions: cited from earlier work
TRPV4, sequence (Q9HBA0 whole entry, species assumed): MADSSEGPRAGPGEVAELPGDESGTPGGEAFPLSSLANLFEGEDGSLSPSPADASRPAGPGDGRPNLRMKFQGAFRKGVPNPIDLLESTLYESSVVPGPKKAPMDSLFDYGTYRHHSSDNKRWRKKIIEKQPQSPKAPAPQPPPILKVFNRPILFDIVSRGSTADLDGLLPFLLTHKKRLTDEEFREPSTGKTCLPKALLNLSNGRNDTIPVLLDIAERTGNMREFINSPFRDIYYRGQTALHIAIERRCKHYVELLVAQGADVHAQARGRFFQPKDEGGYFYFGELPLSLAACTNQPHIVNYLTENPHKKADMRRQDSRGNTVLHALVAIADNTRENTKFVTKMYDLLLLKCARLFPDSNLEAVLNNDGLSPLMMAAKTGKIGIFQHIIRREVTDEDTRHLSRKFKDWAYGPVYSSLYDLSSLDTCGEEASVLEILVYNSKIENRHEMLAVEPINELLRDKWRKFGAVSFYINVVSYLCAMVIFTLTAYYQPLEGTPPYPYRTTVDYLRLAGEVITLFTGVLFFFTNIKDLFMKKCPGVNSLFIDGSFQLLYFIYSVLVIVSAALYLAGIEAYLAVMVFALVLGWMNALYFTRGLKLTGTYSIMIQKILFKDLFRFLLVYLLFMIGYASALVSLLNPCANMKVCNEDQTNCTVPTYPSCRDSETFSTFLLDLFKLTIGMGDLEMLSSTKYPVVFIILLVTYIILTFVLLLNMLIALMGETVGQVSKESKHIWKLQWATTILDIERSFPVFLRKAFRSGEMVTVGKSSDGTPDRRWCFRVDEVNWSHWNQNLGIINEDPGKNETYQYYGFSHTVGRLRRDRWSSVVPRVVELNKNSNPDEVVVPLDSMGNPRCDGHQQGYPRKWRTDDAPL

HEK293 cell = conditions: cited from earlier work
mice [15] = conditions: oral (species not given; mice); cited from earlier work
mice [16] = assay: NOAEL, oral, mice
[17] = 2 mL/dose 4 times per day of Table A2 composition
[18] = Table A2 Preferred Base Viral Nebulizer Liquid, single 2 mL dose, 25 mL ELF, 100 percent retained
[19] = Table A3 Preferred Viral Respiratory Challenged Nebulizer Liquid, single 2 mL dose, 25 mL ELF, 100 percent retained
[20] = Table A4 Preferred Bacterial Pneumonia Nebulizer Liquid, single 2 mL dose, 25 mL ELF, 100 percent retained
[21] = Table A6 Preferred Base Nebulizer Liquid with Amino Acids, single 2 mL dose, 25 mL ELF, 100 percent retained

CCCCCCCCCCCC(=O)OCCOCCOCCOCCOCCOCCOCCOCCOCCOCCOCCOCCOCCOCCOCCOCCOCCOCCOCCOCCOCC(OCCOCCOCCOCCOCCOCCOCCOCCOCCOCCOCCOCCOCCOCCOCCOCCOCCOCCOCCOCCO)C1OCC(OCCOCCOCCOCCOCCOCCOCCOCCOCCOCCOCCOCCOCCOCCOCCOCCOCCOCCOCCOCCO)C1OCCOCCOCCOCCOCCOCCOCCOCCOCCOCCOCCOCCOCCOCCOCCOCCOCCOCCOCCOCCO (stereo not drawn) [Polysorbate 20]
factor NOAEL over daily inhaled dose (rats [1]; [17]): 2,980 times | NOAEL for a 62 kg adult human (rats [1]; extrapolated from rat NOAEL): 155,000 mg per day | Concentration in Epithelial Lining Fluid [18]: 530 µg/mL | Concentration in Epithelial Lining Fluid [19]: 1070 µg/mL | Concentration in Epithelial Lining Fluid [20]: 1330 µg/mL | Concentration in Epithelial Lining Fluid [21]: 1330 µg/mL | Concentration in Epithelial Lining Fluid (human): 1870 µg/mL | NOAEL (rats [2]): 2,500 mg/kg | LD50 ([3]; in vivo): 3,850 mg/kg

CC(=O)N[C@@H](CS)C(=O)O [N-acetyl cysteine]
estimated concentration in the epithelial lining fluid of the lungs (human): 889 µg/mL | sputum eosinophil cationic protein concentrations (COPD patients; COPD patients): reduced | lung lavage glutathione levels (COPD patients): increased | superoxide production by alveolar macrophages (COPD patients): reduced | morphology and viability of CdCl2 treated human lung cells [4]: restored the morphology and viability | H5N1-induced cytopathogenic effects, virus-induced apoptosis, and viral yields (H5N1 influenza A virus): reduces | Ca^2+ influx induced by cigarette smoke extract [5]: prevented | lung fibrosis induced by bleomycin (mice [6]): inhibited | LD50 ([3]; in vivo): 5050 mg/kg | LD50 ([3]; oral, rat): 5,050 mg/kg

O=C1CC2CC[C@H]1C2 [norcamphor]
activation of hTRPA1 (hTRPA1): did not activate

Cn1c(=O)c2c(CC(=O)Nc3nc(-c4ccc(F)c(C(F)(F)F)c4F)cs3)csc2n(C)c1=O [GRC 17536]
citric acid induced tussive response (guinea pigs [7]): inhibited

CCNC(=O)CC[C@H](N)C(=O)O [theanine, L-theanine]
Concentration in Epithelial Lining Fluid (human): 2670 µg/mL | growth of A549 cells (human lung cancer A549): significantly suppressed | growth of K562 cells (leukemia K562 cells): significantly suppressed

Oc1ccc(C=Cc2cc(O)cc(O)c2)cc1 [Resveratrol]
cigarette smoke-induced lung inflammation (mice [8]): decreased

CC1=CC(=O)C(C(C)C)=CC1=O [thymoquinone]
bronchoalveolar lavage fluid IL-8 (guinea pigs [9]): significantly decreased | bronchoalveolar lavage fluid LTB4 (guinea pigs [9]): did not significantly change

CCCCC/C=C\C/C=C\C/C=C\C/C=C\CCCC(=O)OC(CO)CO [Table 2-AG, 2-arachidonoyl-glycerol, reference compound]
Ki (CB2 receptor): 0.65 µM

CC1(C)[C@@H]2CC[C@@]1(C)[C@](C)(O)C2 [2-methylosoborneol, 2-methylisoborneol]
IC50 (hTRPA1; TRPA1 activated by 20 uM AITC, read-out: IC-50 concentration, inactivation of TRPA1 activation): 120 µM | activation of hTRPA1 (hTRPA1): did not activate | inhibition of hTRPA1 activation by menthol and AITC (hTRPA1): completely inhibited

epigallocatechin-3-gallate
increase of cellular uptake [10]: 2.5 times | cigarette smoke-induced oxidative stress and neutrophilic inflammation, airway mucus production and collagen deposition (rats [11]): ameliorated | bronchoalveolar lavage fluid IL-8 (guinea pigs [9]): significantly reduced | bronchoalveolar lavage fluid LTB4 (guinea pigs [9]): significantly reduced

NCCS(=O)(=O)O [Taurine]
Concentration in Epithelial Lining Fluid (human): 2670 µg/mL

COc1ccc2cc3[n+](cc2c1OC)CCc1cc2c(cc1-3)OCO2 [berberine]
cigarette smoke-induced airway inflammation and mucus production (mice [12]): inhibited

CC1(C)C2CCC1(C)C(O)C2 (stereo not drawn) [borneol]
activation of hTRPA1 (hTRPA1): did not activate | inhibition of hTRPA1 activation by menthol and AITC (hTRPA1): completely inhibited

OC[C@@H](O)[C@H](O)[C@@H](O)CO [xylitol]
lung virus titers versus phosphate-buffered saline controls [13]: significantly greater reductions

C=C1CC/C=C(\C)CC[C@@H]2[C@@H]1CC2(C)C [B-Caryophyllene]
NOAEL (rats [2]; 90 d): >700 mg/kg | LD50 ([3]; oral, rat): >5,000 mg/kg

N[C@@H](CCC(=O)N[C@@H](CS)C(=O)NCC(=O)O)C(=O)O [glutathione, γ-L-glutamyl-L-cysteinyl-glycine]
estimated concentration in the epithelial lining fluid of the lungs (human): 889 µg/mL | adverse effects of aerosol administration [14]: no adverse effects | period epithelial lung fluid glutathione remained elevated [14]: 2 h | change from baseline FEV1 (asthma patients): −19% | change from baseline total pulmonary resistance (asthma patients): +61% | LD50 ([3]; in vivo): 5000 mg/kg | LD50 ([3]; oral, mouse): 5,000 mg/kg | cigarette smoke extract-mediated IL-8 release (human MonoMac6 cells): significantly inhibited

COc1cc(O)cc(O)c1C(=O)/C=C/c1ccccc1 [cardamonin]
IC50 (TRAPA1): 0.454 µM | effect on TRPV1 (TRPV1): not affecting | effect on TRPV4 (TRPV4): not affecting | HEK293 cell viability (HEK293 cell): did not significantly reduce

CC12CCC(CC1=O)C2(C)C (stereo not drawn) [camphor]
activation of hTRPA1 (hTRPA1): did not activate

C/C1=C2/[N-][C@H]([C@H](CC(N)=O)[C@@]2(C)CCC(=O)NC[C@@H](C)OP(=O)([O-])O[C@H]2[C@@H](O)[C@@H](n3cnc4cc(C)c(C)cc43)O[C@@H]2CO)[C@]2(C)N=C(/C(C)=C3N=C(/C=C4N=C1[C@@H](CCC(N)=O)C\4(C)C)[C@@H](CCC(N)=O)[C@]\3(C)CC(N)=O)[C@@H](CCC(N)=O)[C@]2(C)CC(N)=O.[CH3-].[Co+3] [methylcobalamin]
Concentration in Epithelial Lining Fluid [18]: 0.5 µg/mL | Concentration in Epithelial Lining Fluid [19]: 1.1 µg/mL | Concentration in Epithelial Lining Fluid [20]: 1.1 µg/mL | Concentration in Epithelial Lining Fluid [21]: 1.1 µg/mL | NOAEL (mice [15]): 500 mg/kg | factor NOAEL over daily inhaled dose (mice [16]; [17]): 596,254 times | NOAEL for a 62 kg adult human (mice [16]; extrapolated from mouse NOAEL): 31,000 mg per day

CC(C)c1ccc(NC(=O)Cn2cnc3c2c(=O)n(C)c(=O)n3C)cc1 [HC-030031]
Ca^2+ influx induced by cigarette smoke extract [5]: similar | tussive response induced by TRPA1 agonists (AITC, acrolein, crotonaldehyde, cinnamaldehyde) (guinea pigs [7]): attenuated

CC12CCC(C1)C(C)(C)C2O (stereo not drawn) [fenchyl alcohol]
activation of hTRPA1 (hTRPA1): did not activate | inhibition of hTRPA1 activation by menthol and AITC (hTRPA1): completely inhibited
